Test results: patent US20020111274A1, “1-alkyl-3-[1-(substituted phenyl) benzotriazol-6-yl] uracils” (BASF Aktiengesellschaft, priority 2000, published 2002)

Tests used:
[1] = system: SETVI Foxtail, Green; assay: Postemergence herbicidal evaluation, SETVI; type: in vivo, Setaria viridis, (L.) Beau; parameters: scale not given here; settings: postemergence spray, rated about two-three weeks after treatment
Outline: (§1)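 Visual injury rating ~2–3 wk post-spray; replicate tests averaged. Two-week-old seedlings; foliar spray at 40 psi; 0.006–0.400 kg ai/ha in 80/20 acetone/water + 1.0% methylated seed oil.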

[2] = system: SETVI Foxtail, Green; assay: Preemergence herbicidal evaluation, SETVI; type: in vivo, Setaria viridis, (L.) Beau; parameters: scale not given here; settings: preemergence
Outline: (§2)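 Visual ratings were taken four to five weeks after application. Before that, cups sown with seed in potting soil received a spray of compound dissolved in aqueous acetone, equivalent to about 0.013 to 0.800 kg/ha, and stood on greenhouse benches under conventional care.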

[3] = system: GLXMAW Soybean, Williams; assay: Preemergence herbicidal evaluation, GLXMAW; type: in vivo, Glycine max, (L.) Merr. cv Williams; parameters: scale not given here; settings: preemergence
Outline: as §2

[4] = system: ECHOG Barnyardgrass; assay: Postemergence herbicidal evaluation, ECHOG; type: in vivo, Echinochloa crus-galli, (L.) Beau; parameters: scale not given here; settings: postemergence spray, rated about two-three weeks after treatment
Outline: as §1

[5] = system: AMBEL Ragweed, Common; assay: Preemergence herbicidal evaluation, AMBEL; type: in vivo, Ambrosia artemisifolia, L.; parameters: scale not given here; settings: preemergence
Outline: as §2

[6] = system: IPOHE Morningglory, Ivyleaf; assay: Preemergence herbicidal evaluation, IPOHE; type: in vivo, Ipomoea hederacea, (L.) Jacq.; parameters: scale not given here; settings: preemergence
Outline: as §2

[7] = system: GALAP Galium; assay: Preemergence herbicidal evaluation, GALAP; type: in vivo, Galium aparine; parameters: scale not given here; settings: preemergence
Outline: as §2

[8] = system: CASOB Sicklepod; assay: Postemergence herbicidal evaluation, CASOB; type: in vivo, Cassia obtusifolia, L.; parameters: scale not given here; settings: postemergence spray, rated about two-three weeks after treatment
Outline: as §1

[9] = system: ECHOG Barnyardgrass; assay: Preemergence herbicidal evaluation, ECHOG; type: in vivo, Echinochloa crus-galli, (L.) Beau; parameters: scale not given here; settings: preemergence
Outline: as §2

[10] = system: CHEAL Lambsquarters, Common; assay: Preemergence herbicidal evaluation, CHEAL; type: in vivo, Chenopodium album, L.; parameters: scale not given here; settings: preemergence
Outline: as §2

[11] = system: ABUTH Velvetleaf; assay: Postemergence herbicidal evaluation, ABUTH; type: in vivo, Abutilon theophrasti, Medic.; parameters: scale not given here; settings: postemergence spray, rated about two-three weeks after treatment
Outline: as §1

[12] = system: ZEAMX Corn, Field; assay: Preemergence herbicidal evaluation, ZEAMX; type: in vivo, Zea mays, L. (Sammel-Bezeichnung); parameters: scale not given here; settings: preemergence
Outline: as §2

[13] = system: GALAP Galium; assay: Postemergence herbicidal evaluation, GALAP; type: in vivo, Galium aparine; parameters: scale not given here; settings: postemergence spray, rated about two-three weeks after treatment
Outline: as §1

[14] = system: TRZAWR Wheat, Winter, cv Riband; assay: Postemergence herbicidal evaluation, TRZAWR; type: in vivo, Triticum aestivum; parameters: scale not given here; settings: postemergence spray, rated about two-three weeks after treatment
Outline: as §1

[15] = system: ORYSAT Rice, Tebonnet; assay: Postemergence herbicidal evaluation, ORYSAT; type: in vivo, Oryza sativa, (L.); parameters: scale not given here; settings: postemergence spray, rated about two-three weeks after treatment
Outline: as §1

[16] = system: TRZAWR Wheat, Winter, cv Riband; assay: Preemergence herbicidal evaluation, TRZAWR; type: in vivo, Triticum aestivum; parameters: scale not given here; settings: preemergence, rate 0.062 kg/ha
Outline: as §2

[17] = system: GLXMAW Soybean, Williams; assay: Postemergence herbicidal evaluation, GLXMAW; type: in vivo, Glycine max, (L.) Merr. cv Williams; parameters: scale not given here; settings: postemergence spray, rated about two-three weeks after treatment
Outline: as §1

[18] = system: ORYSAT Rice, Tebonnet; assay: Preemergence herbicidal evaluation, ORYSAT; type: in vivo, Oryza sativa, (L.); parameters: scale not given here; settings: preemergence
Outline: as §2

[19] = system: CASOB Sicklepod; assay: Preemergence herbicidal evaluation, CASOB; type: in vivo, Cassia obtusifolia, L.; parameters: scale not given here; settings: preemergence
Outline: as §2

[20] = system: IPOHE Morningglory, Ivyleaf; assay: Postemergence herbicidal evaluation, IPOHE; type: in vivo, Ipomoea hederacea, (L.) Jacq.; parameters: scale not given here; settings: postemergence spray, rated about two-three weeks after treatment
Outline: as §1

[21] = system: CHEAL Lambsquarters, Common; assay: Postemergence herbicidal evaluation, CHEAL; type: in vivo, Chenopodium album, L.; parameters: scale not given here; settings: postemergence spray, rated about two-three weeks after treatment
Outline: as §1

[22] = system: ABUTH Velvetleaf; assay: Preemergence herbicidal evaluation, ABUTH; type: in vivo, Abutilon theophrasti, Medic.; parameters: scale not given here; settings: preemergence
Outline: as §2

[23] = system: AMBEL Ragweed, Common; assay: Postemergence herbicidal evaluation, AMBEL; type: in vivo, Ambrosia artemisifolia, L.; parameters: scale not given here; settings: postemergence spray, rated about two-three weeks after treatment
Outline: as §1

[24] = system: ZEAMX Corn, Field; assay: Postemergence herbicidal evaluation, ZEAMX; type: in vivo, Zea mays, L. (Sammel-Bezeichnung); parameters: scale not given here; settings: postemergence spray, rated about two-three weeks after treatment
Outline: as §1

CCc1ccc(-n2nnc3cc(F)c(-n4c(=O)cc(C(F)(F)F)n(C)c4=O)cc32)cc1 [Example 17, 3-[1-(4-ethylphenyl)-5-fluoro-1H-1,2,3-benzotriazol-6-yl]-1-methyl-6-(trifluoromethyl)-2,4(1H,3H)-pyrimidinedione]
Postemergence herbicidal rating SETVI ([1]; 0.008 kg/ha): 1.0 | Postemergence herbicidal rating SETVI ([1]; 0.016 kg/ha): 1.0 | Postemergence herbicidal rating SETVI ([1]; 0.032 kg/ha): 3.0 | Postemergence herbicidal rating SETVI ([1]; 0.062 kg/ha): 8.0 | SETVI herbicidal rating ([2]; rate 0.016 kg/ha): 6.5 | SETVI herbicidal rating ([2]; rate 0.032 kg/ha): 7.3 | SETVI herbicidal rating ([2]; rate 0.062 kg/ha): 9.0 | SETVI herbicidal rating ([2]; rate 0.125 kg/ha): 9.0 | GLXMAW herbicidal rating ([3]; rate 0.016 kg/ha): 1.5 | GLXMAW herbicidal rating ([3]; rate 0.032 kg/ha): 1.7 | GLXMAW herbicidal rating ([3]; rate 0.062 kg/ha): 3.0 | GLXMAW herbicidal rating ([3]; rate 0.125 kg/ha): 3.0 | Postemergence herbicidal rating ECHCG ([4]; 0.008 kg/ha): 0.0 | Postemergence herbicidal rating ECHCG ([4]; 0.016 kg/ha): 0.0 | Postemergence herbicidal rating ECHCG ([4]; 0.032 kg/ha): 1.0 | Postemergence herbicidal rating ECHCG ([4]; 0.062 kg/ha): 5.0 | AMBEL herbicidal rating ([5]; rate 0.016 kg/ha): 0.0 | AMBEL herbicidal rating ([5]; rate 0.032 kg/ha): 3.3 | AMBEL herbicidal rating ([5]; rate 0.062 kg/ha): 6.7 | AMBEL herbicidal rating ([5]; rate 0.125 kg/ha): 8.3 | IPOHE herbicidal rating ([6]; rate 0.016 kg/ha): 0.0 | IPOHE herbicidal rating ([6]; rate 0.032 kg/ha): 3.3 | IPOHE herbicidal rating ([6]; rate 0.062 kg/ha): 6.0 | IPOHE herbicidal rating ([6]; rate 0.125 kg/ha): 9.0 | GALAP herbicidal rating ([7]; rate 0.016 kg/ha): 0.0 | GALAP herbicidal rating ([7]; rate 0.032 kg/ha): 0.0 | GALAP herbicidal rating ([7]; rate 0.062 kg/ha): 1.0 | GALAP herbicidal rating ([7]; rate 0.125 kg/ha): 1.0 | Postemergence herbicidal rating CASOB ([8]; 0.008 kg/ha): 1.0 | Postemergence herbicidal rating CASOB ([8]; 0.016 kg/ha): 3.0 | Postemergence herbicidal rating CASOB ([8]; 0.032 kg/ha): 5.0 | Postemergence herbicidal rating CASOB ([8]; 0.062 kg/ha): 6.0 | ECHCG herbicidal rating ([9]; rate 0.016 kg/ha): 0.0 | ECHCG herbicidal rating ([9]; rate 0.032 kg/ha): 1.7 | ECHCG herbicidal rating ([9]; rate 0.062 kg/ha): 6.3 | ECHCG herbicidal rating ([9]; rate 0.125 kg/ha): 8.3 | CHEAL herbicidal rating ([10]; rate 0.016 kg/ha): 9.0 | CHEAL herbicidal rating ([10]; rate 0.032 kg/ha): 9.0 | CHEAL herbicidal rating ([10]; rate 0.062 kg/ha): 9.0 | CHEAL herbicidal rating ([10]; rate 0.125 kg/ha): 9.0 | Postemergence herbicidal rating ABUTH ([11]; 0.008 kg/ha): 9.0 | Postemergence herbicidal rating ABUTH ([11]; 0.016 kg/ha): 9.0 | Postemergence herbicidal rating ABUTH ([11]; 0.032 kg/ha): 9.0 | Postemergence herbicidal rating ABUTH ([11]; 0.062 kg/ha): 9.0 | ZEAMX herbicidal rating ([12]; rate 0.016 kg/ha): 1.0 | ZEAMX herbicidal rating ([12]; rate 0.032 kg/ha): 3.7 | ZEAMX herbicidal rating ([12]; rate 0.062 kg/ha): 4.0 | ZEAMX herbicidal rating ([12]; rate 0.125 kg/ha): 6.7 | Postemergence herbicidal rating GALAP ([13]; 0.008 kg/ha): 2.0 | Postemergence herbicidal rating GALAP ([13]; 0.016 kg/ha): 4.0 | Postemergence herbicidal rating GALAP ([13]; 0.032 kg/ha): 4.0 | Postemergence herbicidal rating GALAP ([13]; 0.062 kg/ha): 7.0 | Postemergence herbicidal rating TRZAWR ([14]; 0.008 kg/ha): 3.5 | Postemergence herbicidal rating TRZAWR ([14]; 0.016 kg/ha): 3.5 | Postemergence herbicidal rating TRZAWR ([14]; 0.032 kg/ha): 4.0 | Postemergence herbicidal rating TRZAWR ([14]; 0.062 kg/ha): 5.0 | Postemergence herbicidal rating ORYSAT ([15]; 0.008 kg/ha): 3.0 | Postemergence herbicidal rating ORYSAT ([15]; 0.016 kg/ha): 3.0 | Postemergence herbicidal rating ORYSAT ([15]; 0.032 kg/ha): 3.5 | Postemergence herbicidal rating ORYSAT ([15]; 0.062 kg/ha): 4.0 | TRZAWR herbicidal rating [16]: 3.0 | Postemergence herbicidal rating GLXMAW ([17]; 0.008 kg/ha): 5.5 | Postemergence herbicidal rating GLXMAW ([17]; 0.016 kg/ha): 5.5 | Postemergence herbicidal rating GLXMAW ([17]; 0.032 kg/ha): 5.5 | Postemergence herbicidal rating GLXMAW ([17]; 0.062 kg/ha): 7.0 | ORYSAT herbicidal rating ([18]; rate 0.016 kg/ha): 1.0 | ORYSAT herbicidal rating ([18]; rate 0.032 kg/ha): 0.5 | ORYSAT herbicidal rating ([18]; rate 0.062 kg/ha): 4.0 | ORYSAT herbicidal rating ([18]; rate 0.125 kg/ha): 4.7 | melting point: 189 to 192 °C | CASOB herbicidal rating ([19]; rate 0.016 kg/ha): 0.0 | CASOB herbicidal rating ([19]; rate 0.032 kg/ha): 1.3 | CASOB herbicidal rating ([19]; rate 0.062 kg/ha): 3.3 | CASOB herbicidal rating ([19]; rate 0.125 kg/ha): 2.3 | Postemergence herbicidal rating IPOHE ([20]; 0.008 kg/ha): 9.0 | Postemergence herbicidal rating IPOHE ([20]; 0.016 kg/ha): 9.0 | Postemergence herbicidal rating IPOHE ([20]; 0.032 kg/ha): 9.0 | Postemergence herbicidal rating IPOHE ([20]; 0.062 kg/ha): 9.0 | Postemergence herbicidal rating CHEAL ([21]; 0.008 kg/ha): 9.0 | Postemergence herbicidal rating CHEAL ([21]; 0.016 kg/ha): 6.0 | Postemergence herbicidal rating CHEAL ([21]; 0.032 kg/ha): 7.0 | Postemergence herbicidal rating CHEAL ([21]; 0.062 kg/ha): 9.0 | ABUTH herbicidal rating ([22]; rate 0.016 kg/ha): 9.0 | ABUTH herbicidal rating ([22]; rate 0.032 kg/ha): 7.0 | ABUTH herbicidal rating ([22]; rate 0.062 kg/ha): 9.0 | ABUTH herbicidal rating ([22]; rate 0.125 kg/ha): 9.0 | Postemergence herbicidal rating AMBEL ([23]; 0.008 kg/ha): 5.0 | Postemergence herbicidal rating AMBEL ([23]; 0.016 kg/ha): 6.0 | Postemergence herbicidal rating AMBEL ([23]; 0.032 kg/ha): 8.0 | Postemergence herbicidal rating AMBEL ([23]; 0.062 kg/ha): 9.0 | Postemergence herbicidal rating ZEAMX ([24]; 0.008 kg/ha): 5.0 | Postemergence herbicidal rating ZEAMX ([24]; 0.016 kg/ha): 5.5 | Postemergence herbicidal rating ZEAMX ([24]; 0.032 kg/ha): 5.5 | Postemergence herbicidal rating ZEAMX ([24]; 0.062 kg/ha): 5.5
